Measurements reported in ChEMBL document CHEMBL1201862, “PubChem BioAssay data set” (2004).
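Following 48 hours of exposure in 96-well plates, responses at five concentrations were used to interpolate endpoints linearly. The concentration for 50% growth inhibition is given as GI50.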 Calls of active or inactive are those of the source. No stated cut-off is given here; in the data, active = GI50 up to about 1.1 µM and inactive = higher.

Tests used:
Experiment in all cases: NCI tumour cell line growth inhibition, 48 h
UO-31 = tested on: UO-31
RPMI-8226 = tested on: RPMI-8226
SK-MEL-2 = tested on: SK-MEL-2
T47D = tested on: T47D
TK-10 = tested on: TK-10
HCC 2998 = tested on: HCC 2998
OVCAR-3 = tested on: OVCAR-3
KM12 = tested on: KM12
OVCAR-5 = tested on: OVCAR-5
UACC-62 = tested on: UACC-62
A549 = tested on: A549
UACC-257 = tested on: UACC-257
SK-MEL-28 = tested on: SK-MEL-28
NCI-H23 = tested on: NCI-H23
DU-145 = tested on: DU-145
SF-539 = tested on: SF-539
M14 = tested on: M14
SW-620 = tested on: SW-620
HT-29 = tested on: HT-29
IGROV-1 = tested on: IGROV-1
OVCAR-8 = tested on: OVCAR-8
PC-3 = tested on: PC-3
786-0 = tested on: 786-0
SR = tested on: SR
SNB-75 = tested on: SNB-75
RXF 393 = tested on: RXF 393
SF-268 = tested on: SF-268
HOP-62 = tested on: HOP-62
HCT-15 = tested on: HCT-15
NCI-H522 = tested on: NCI-H522
COLO 205 = tested on: COLO 205
EKVX = tested on: EKVX
ACHN = tested on: ACHN
HCT-116 = tested on: HCT-116
HOP-92 = tested on: HOP-92
K562 = tested on: K562
SNB-19 = tested on: SNB-19
HL-60 = tested on: HL-60
SK-OV-3 = tested on: SK-OV-3
MDA-MB-231 = tested on: MDA-MB-231
LOX IMVI = tested on: LOX IMVI
CCRF-CEM = tested on: CCRF-CEM
U-251 = tested on: U-251
OVCAR-4 = tested on: OVCAR-4
CAKI-1 = tested on: CAKI-1
NCI/ADR-RES = tested on: NCI/ADR-RES
A498 = tested on: A498
SK-MEL-5 = tested on: SK-MEL-5
NCI-H460 = tested on: NCI-H460
SF-295 = tested on: SF-295
MOLT-4 = tested on: MOLT-4

In the case of `COc1cc(C(=O)N2CCN(C=O)C2=S)cc(OC)c1OC`, the GI50 (UO-31) is reported as 0.0675 µM (active) and the GI50 (RPMI-8226) is reported as 7.31 µM (inactive).

For `COc1cc([C@@H]2c3cc4c(cc3[C@@H](Nc3ccc(NC(=O)c5cc([N+](=O)[O-])cn5C)cc3)[C@H]3COC(=O)[C@H]23)OCO4)cc(OC)c1O`, the GI50 (SK-MEL-2) was 0.938 µM (active), the GI50 (T47D) was 0.0134 µM (active) and the GI50 (TK-10) was 0.479 µM (active). The GI50 (HCC 2998) was 0.223 µM (active), the GI50 (OVCAR-3) was 0.449 µM (active) and the GI50 (KM12) was 0.216 µM (active). The GI50 (OVCAR-5) was 0.468 µM (active), the GI50 (UO-31) was 0.231 µM (active) and the GI50 (UACC-62) was 0.0612 µM (active). The GI50 (A549) was 0.0195 µM (active), the GI50 (UACC-257) was 0.658 µM (active) and the GI50 (SK-MEL-28) was 0.621 µM (active). The GI50 (NCI-H23) was 0.0401 µM (active), the GI50 (DU-145) was < 0.013 µM (active) and the GI50 (SF-539) was 0.0617 µM (active). For the same molecule, the GI50 (M14) was 0.0771 µM (active), the GI50 (SW-620) was 0.162 µM (active) and the GI50 (HT-29) was 0.195 µM (active). For the same molecule, the GI50 (IGROV-1) was 0.265 µM (active), the GI50 (OVCAR-8) was 0.11 µM (active) and the GI50 (PC-3) was 0.143 µM (active). For the same molecule, the GI50 (786-0) was 0.0627 µM (active), the GI50 (SR) was < 0.01 µM (active) and the GI50 (SNB-75) was 0.0614 µM (active). The GI50 (RXF 393) was 0.352 µM (active), the GI50 (SF-268) was 0.118 µM (active) and the GI50 (HOP-62) was 0.0198 µM (active). For the same molecule, the GI50 (HCT-15) was 0.307 µM, the GI50 (NCI-H522) was 0.291 µM (active) and the GI50 (COLO 205) was 0.219 µM (active). For the same molecule, the GI50 (EKVX) was 0.658 µM (active), the GI50 (ACHN) was < 0.0108 µM (active) and the GI50 (HCT-116) was 0.138 µM (active). For the same molecule, the GI50 (HOP-92) was 0.0796 µM (active), the GI50 (K562) was 0.132 µM (active) and the GI50 (SNB-19) was 0.054 µM (active). For the same molecule, the GI50 (HL-60) was < 0.0213 µM (active).

`C[C@@H](C(=O)O)c1ccc(-c2ccccc2)c(F)c1` [TARENFLURBIL] was tested, and the GI50 (T47D) was > 100 µM (inactive), the GI50 (SK-OV-3) was > 100 µM (inactive) and the GI50 (TK-10) was > 100 µM (inactive). The GI50 (HCC 2998) was > 100 µM (inactive), the GI50 (OVCAR-3) was > 100 µM (inactive) and the GI50 (KM12) was > 100 µM (inactive). The GI50 (OVCAR-5) was > 100 µM (inactive), the GI50 (UO-31) was > 71.9 µM (inactive) and the GI50 (UACC-62) was > 100 µM (inactive). The GI50 (RPMI-8226) was > 100 µM (inactive), the GI50 (MDA-MB-231) was > 100 µM (inactive) and the GI50 (UACC-257) was > 100 µM (inactive). For the same molecule, the GI50 (LOX IMVI) was > 100 µM (inactive), the GI50 (NCI-H23) was > 100 µM (inactive) and the GI50 (DU-145) was > 100 µM (inactive). The GI50 (CCRF-CEM) was > 100 µM (inactive), the GI50 (M14) was > 100 µM (inactive) and the GI50 (SW-620) was > 100 µM (inactive). The GI50 (HT-29) was > 100 µM (inactive), the GI50 (IGROV-1) was > 100 µM (inactive) and the GI50 (OVCAR-8) was > 100 µM (inactive). The GI50 (PC-3) was > 100 µM (inactive), the GI50 (786-0) was > 100 µM (inactive) and the GI50 (U-251) was > 100 µM (inactive). The GI50 (OVCAR-4) was > 100 µM (inactive), the GI50 (SR) was > 100 µM (inactive) and the GI50 (RXF 393) was > 100 µM (inactive). For the same molecule, the GI50 (CAKI-1) was > 100 µM (inactive), the GI50 (NCI/ADR-RES) was > 100 µM (inactive) and the GI50 (COLO 205) was > 100 µM (inactive). The GI50 (A498) was > 100 µM (inactive), the GI50 (ACHN) was > 100 µM (inactive) and the GI50 (HCT-116) was > 100 µM (inactive). The GI50 (HOP-92) was > 100 µM (inactive), the GI50 (SK-MEL-5) was > 100 µM (inactive) and the GI50 (NCI-H460) was > 100 µM (inactive). For the same molecule, the GI50 (K562) was > 100 µM (inactive), the GI50 (SNB-19) was > 73.6 µM (inactive) and the GI50 (SF-295) was > 100 µM (inactive). The GI50 (MOLT-4) was > 100 µM (inactive).
